Measured values reported in patent US11690911B2, “Combination of ATR kinase inhibitors and PD-1/PD-L1 inhibitors” (Bayer Pharma Aktiengesellschaft, priority 2017, dated 2023).

What was measured:
[1] = tested on: murine syngeneic lymphoma model A20; settings: mouse, in vivo, po, 50 mg/kg
Protocol: (§1) KLN205) or three (CT26 and MC38 study 1) or only one (MC38 study 2) different combination schedules were tested:
(§2) The oral application volume was 10 ml/kg and the intravenous application volume 5 ml/kg. The time interval between two applications per day was 6-7 h. The tumor size and the body weight were determined three times weekly. Changes in the body weight were a measure of treatment-related toxicity (>10%=critical, stop of treatment until recovery, >20%=toxic, termination). The tumor volume was detected by means of an electronic caliper gauge [0.5×length in mm×(width in mm)^2]. Animals for which the tumor volume exceeded 2000 mm^3 (or for which the mean tumor volume of the group exceeds 2000 mm^3) were euthanized. In vivo anti-tumor efficacy is presented as T/C ratio (Treatment/Control) calculated with tumor volumes at day of control group termination by the formula [(tumor volume of treatment group at day x)−(tumor volume of treatment group at day before first treatment)]/[(tumor volume control group at day x)−(tumor volume of control group at day before first treatment)]. […] Statistical analysis was assessed using SigmaStat software. A one-way analysis of variance was performed and differences to the control were compared by a pair-wise comparison procedure (Dunn's method).

[2] = tested on: murine syngeneic lung carcinoma model KLN205; settings: mouse, in vivo
Protocol: as §1, §2

[3] = tested on: murine syngeneic colon carcinoma model CT26; settings: mouse, in vivo, po, 50 mg/kg
Protocol: as §1, §2

C[C@@H]1COCCN1c1cc(-c2ccnn2C)c2ccnc(-c3ccn[nH]3)c2n1 [Compound A, 2-[(3R)-3-methylmorpholin-4-yl]-4-(1-methyl-1H-pyrazol-5-yl)-8-(1H-pyrazol-5-yl)-1,7-naphthyridine]
Max. weight loss (%) [1]: −2% | Max. weight loss (%) [2]: −19 (d9) % | body weight loss (in words) [2]: critical body weight loss | Max. weight loss (%) [3]: −1%
